Test results: patent publication US11123355B2, “Antiviral benzyl-amine phosphodiamide compounds” (Merck Sharp & Dohme Corp., priority 2016, dated 2021)
Like-named read-outs stand apart in the source and are kept apart here.

System: HIV-1 (H9/IIB strain)
Experiment: Multiple Round HIV-1 Infection Assay (Viking Assay) in MT4-GFP cells
Format: cell-based
Conditions: inhibition of reproductive ratio R0
Procedure: Assessing antiviral potency in a Multiple Round HIV-1 Infection Assay (Viking Assay) The antiviral activity of the tenofovir prodrugs of the Examples herein was assessed in an assay that measures the rate of replication of HIV in cell culture, termed the Viking assay (VIral KINetics in Green cells) and performed as follows. HIV-1 replication was monitored using MT4-gag-GFP clone D3 (hereafter designated MT4-GFP), which are MT-4 cells modified to harbor a GFP reporter gene, the expression of which is dependent on the HIV-1 expressed proteins tat and rev. Productive infection of an MT4-GFP cell with HIV-1 results in GFP expression approximately 24 h post-infection. MT4-GFP cells were maintained at 37° C./5% CO2/90% relative humidity in RPMI 1640 supplemented with 10/o fetal bovine serum, 100 U/ml penicillin/streptomycin, and 400 μg/ml G418 to maintain the reporter gene. For infections, MT4-GFP cells were placed in the same medium lacking G418 and infected overnight with HIV-1 (H9/IIB strain) virus at an approximate multiplicity of infection of 0.01 in the same incubation conditions. Cells were then washed and re-suspended in either RPMI 1640 supplemented with 10% or 50% normal human serum (NHS) at 1.6×10^5 cells/mL (10% NHS or 50% NHS, respectively). Compound plates were prepared by dispensing compounds dissolved in DMSO into wells of 384 well poly-D-lysine-coated plates (0.2 μl/well) using an ECHO acoustic dispenser. Each compound was tested in a 10-point serial 3-fold dilution (typical final concentrations: 8.4 μM-0.42 nM). Controls included no inhibitor (DMSO only) and a combination of three antiviral agents (efavirenz, indinavir, an in-house integrase strand transfer inhibitor at final concentrations of 4 μM each). Cells were added (50 μL/well) to compound plates and the infected cells were maintained at 37° C./5% CO2/90% relative humidity.
Infected cells were quantified at two time points, ˜48 h and ˜72 h post-infection, by counting the number of green cells in each well using an Acumen eX3 scanner. The increase in the number of green cells over ˜24 h period gives the reproductive ratio, R0, which is typically 5-15 and has been shown experimentally to be in logarithmic phase (data not shown). Inhibition of R0 is calculated for each well, and IC50s determined by non-linear 4-parameter curve fitting.

[1] = MT4-GFP cells infected with HIV-1, 10% normal human serum, read-out: Viking, IC50 (10% NHS)
[2] = MT4-GFP cells infected with HIV-1, 50% normal human serum, read-out: Viking, IC50 (50% NHS)

SMILES | IC50 [1] | IC50 [2]
CCCOC(=O)C(C)(C)NP(=O)(CO[C@H](C)Cn1cnc2c(N)ncnc21)N[C@@H](C)c1ccc(Cl)cc1 (stereo partly drawn) [Example 13B, propyl 2-(((R)-((((R)-1-(6-amino-9H-purin-9-yl)propan-2-yl)oxy)methyl)(((S)-1-(4-chlorophenyl)ethyl)amino)phosphoryl)ami-no)-2-methylpropanoate and propyl 2-(((S)-((((R)-1-(6-amino-9H-purin-9-yl)propan-2-yl)oxy)methyl)(((S)-1-(4-chlorophenyl)ethyl)amino)phosphoryl)ami-no)-2-methylpropanoate] | 73 nM | 310 nM
CCCOC(=O)C(C)(C)N[P@@](=O)(CO[C@H](C)Cn1cnc2c(N)ncnc21)N[C@@H](C)c1ccc(OC)cc1 [Example 14A, propyl 2-(((R)-((((R)-1-(6-amino-9H-purin-9-yl)propan-2-yl)oxy)methyl)(((S)-1-(4-methoxyphenyl)ethyl)amino)phosphoryl)a-mino)-2-methylpropanoate and propyl 2-(((S)-((((R)-1-(6-amino-9H-purin-9-yl)propan-2-yl)oxy)methyl)(((S)-1-(4-methoxyphenyl)ethyl)amino)phosphoryl)a-mino)-2-methylpropanoate] | 25 nM | 140 nM
CCCOC(=O)C(C)(C)N[P@@](=O)(CO[C@H](C)Cn1cnc2c(N)ncnc21)N[C@@H](C)c1ccc(OC)cc1 [Example 14B, propyl 2-(((R)-((((R)-1-(6-amino-9H-purin-9-yl)propan-2-yl)oxy)methyl)(((S)-1-(4-methoxyphenyl)ethyl)amino)phosphoryl)a-mino)-2-methylpropanoate and propyl 2-(((S)-((((R)-1-(6-amino-9H-purin-9-yl)propan-2-yl)oxy)methyl)(((S)-1-(4-methoxyphenyl)ethyl)amino)phosphoryl)a-mino)-2-methylpropanoate] | 52 nM | 280 nM
CCCOC(=O)C(C)(C)N[P@@](=O)(CO[C@H](C)Cn1cnc2c(N)ncnc21)N[C@H](C)c1ccc(OC)cc1 [Example 15A, propyl 2-(((R)-((((R)-1-(6-amino-9H-purin-9-yl)propan-2-yl)oxy)methyl)(((R)-1-(4-methoxyphenyl)ethyl)amino)phosphoryl)a-mino)-2-methylpropanoate and propyl 2-(((S)-((((R)-1-(6-amino-9H-purin-9-yl)propan-2-yl)oxy)methyl)(((R)-1-(4-methoxyphenyl)ethyl)amino)phosphoryl)a-mino)-2-methylpropanoate] | 74 nM | 410 nM
CCCOC(=O)C(C)(C)N[P@@](=O)(CO[C@H](C)Cn1cnc2c(N)ncnc21)N[C@H](C)c1ccc(OC)cc1 [Example 15B, propyl 2-(((R)-((((R)-1-(6-amino-9H-purin-9-yl)propan-2-yl)oxy)methyl)(((R)-1-(4-methoxyphenyl)ethyl)amino)phosphoryl)a-mino)-2-methylpropanoate and propyl 2-(((S)-((((R)-1-(6-amino-9H-purin-9-yl)propan-2-yl)oxy)methyl)(((R)-1-(4-methoxyphenyl)ethyl)amino)phosphoryl)a-mino)-2-methylpropanoate] | 7.4 nM | 40 nM
CCCOC(=O)C(C)(C)N[P@@](=O)(CO[C@H](C)Cn1cnc2c(N)ncnc21)N[C@@H](C)c1ccccc1OC [Example 17A, propyl 2-(((R)-((((R)-1-(6-amino-9H-purin-9-yl)propan-2-yl)oxy)methyl)(((S)-1-(2-methoxyphenyl)ethyl)amino)phosphoryl)a-mino)-2-methylpropanoate and propyl 2-(((S)-((((R)-1-(6-amino-9H-purin-9-yl)propan-2-yl)oxy)methyl)(((S)-1-(2-methoxyphenyl)ethyl)amino)phosphoryl)a-mino)-2-methylpropanoate] | 24 nM | 310 nM
CCCOC(=O)C(C)(C)N[P@@](=O)(CO[C@H](C)Cn1cnc2c(N)ncnc21)N[C@@H](C)c1ccccc1OC [Example 17B, propyl 2-(((R)-((((R)-1-(6-amino-9H-purin-9-yl)propan-2-yl)oxy)methyl)(((S)-1-(2-methoxyphenyl)ethyl)amino)phosphoryl)a-mino)-2-methylpropanoate and propyl 2-(((S)-((((R)-1-(6-amino-9H-purin-9-yl)propan-2-yl)oxy)methyl)(((S)-1-(2-methoxyphenyl)ethyl)amino)phosphoryl)a-mino)-2-methylpropanoate] | 84 nM | 510 nM
CCCOC(=O)C(C)(C)NP(=O)(CO[C@H](C)Cn1cnc2c(N)ncnc21)N[C@@H](C)c1ccc(OC(F)(F)F)cc1 (stereo partly drawn) [Example 19B, propyl 2-(((R)-((((R)-1-(6-amino-9H-purin-9-yl)propan-2-yl)oxy)methyl)(((S)-1-(4-(trifluoromethoxy)phenyl)ethyl)amino)phos-phoryl)amino)-2-methylpropanoate and propyl 2-(((S)-((((R)-1-(6-amino-9H-purin-9-yl)propan-2-yl)oxy)methyl)(((S)-1-(4-(trifluoromethoxy)phenyl)ethyl)amino)phos-phoryl)amino)-2-methylpropanoate] | 84 nM | 360 nM
CCCOC(=O)C(C)(C)NP(=O)(CO[C@H](C)Cn1cnc2c(N)ncnc21)N[C@H](C)c1ccccc1OC (stereo partly drawn) [Example 20A, propyl 2-(((R)-((((R)-1-(6-amino-9H-purin-9-yl)propan-2-yl)oxy)methyl)(((R)-1-(2-methoxyphenyl)ethyl)amino)phosphoryl)a-mino)-2-methylpropanoate and propyl 2-(((S)-((((R)-1-(6-amino-9H-purin-9-yl)propan-2-yl)oxy)methyl)(((R)-1-(2-methoxyphenyl)ethyl)amino)phosphoryl)a-mino)-2-methylpropanoate] | 61 nM | 590 nM
CCCOC(=O)C(C)(C)NP(=O)(CO[C@H](C)Cn1cnc2c(N)ncnc21)N[C@H](C)c1ccccc1OC (stereo partly drawn) [Example 20B, propyl 2-(((R)-((((R)-1-(6-amino-9H-purin-9-yl)propan-2-yl)oxy)methyl)(((R)-1-(2-methoxyphenyl)ethyl)amino)phosphoryl)a-mino)-2-methylpropanoate and propyl 2-(((S)-((((R)-1-(6-amino-9H-purin-9-yl)propan-2-yl)oxy)methyl)(((R)-1-(2-methoxyphenyl)ethyl)amino)phosphoryl)a-mino)-2-methylpropanoate] | 9.5 nM | 53 nM
CCCOC(=O)C(C)(C)NP(=O)(CO[C@H](C)Cn1cnc2c(N)ncnc21)N[C@H](C)c1ccc(OC(F)(F)F)cc1C (stereo partly drawn) [Example 21A, Propyl 2-(((R)-((((R)-1-(6-amino-9H-purin-9-yl)propan-2-yl)oxy)methyl)(((R)-1-(2-methyl-4-(trifluoromethoxy)phenyl)ethyl)amino)phos-phoryl)amino)-2-methylpropanoate and propyl 2-(((S)-((((R)-1-(6-amino-9H-purin-9-yl)propan-2-yl)oxy)methyl)(((R)-1-(2-methyl-4-(trifluoromethoxy)phenyl)ethyl)amino)phos-phoryl)amino)-2-methylpropanoate] | 150 nM | 800 nM
CCCOC(=O)C(C)(C)N[P@@](=O)(CO[C@H](C)Cn1cnc2c(N)ncnc21)N[C@H](c1cccc(F)c1)C(F)(F)F [Example 22A, propyl 2-(((R)-((((R)-1-(6-amino-9H-purin-9-yl)propan-2-yl)oxy)methyl)(((R)-2,2,2-trifluoro-1-(3-fluorophenyl)ethyl)amino)phosphoryl)ami-no)-2-methylpropanoate and propyl 2-(((S)-((((R)-1-(6-amino-9H-purin-9-yl)propan-2-yl)oxy)methyl)(((R)-2,2,2-trifluoro-1-(3-fluorophenyl)ethyl)amino)phosphoryl)ami-no)-2-methylpropanoate] | 8.1 nM | 74 nM
CCCOC(=O)C(C)(C)N[P@@](=O)(CO[C@H](C)Cn1cnc2c(N)ncnc21)N[C@H](c1cccc(F)c1)C(F)(F)F [Example 22B, propyl 2-(((R)-((((R)-1-(6-amino-9H-purin-9-yl)propan-2-yl)oxy)methyl)(((R)-2,2,2-trifluoro-1-(3-fluorophenyl)ethyl)amino)phosphoryl)ami-no)-2-methylpropanoate and propyl 2-(((S)-((((R)-1-(6-amino-9H-purin-9-yl)propan-2-yl)oxy)methyl)(((R)-2,2,2-trifluoro-1-(3-fluorophenyl)ethyl)amino)phosphoryl)ami-no)-2-methylpropanoate] | 42 nM | 330 nM
